Measurements published in patent publication US5691365A, “Nicotinic receptor antagonists in the treatment of neuropharmacological disorders” (University of Kentucky Research Foundation, priority 1995, dated 1997).
Values joined by “and” are separate entries in the source; they are usually repeats but may differ in a detail not shown here. Identical values can stand only once. “Also recorded” adds a separate entry of the source. Like-named read-outs stand apart in the source and are kept apart here.

What was measured:
[1] = system: [^3 H]DA release from rat striatal slices; experiment: [3H]DA release assay: compound-evoked (intrinsic agonist) release; assay type: cell-based
Description: (§1) Biological Methods. Male Spragua-Dawley rats (150-200 g) were obtained from Harlan Laboratories (Indianapolis, Ind.) and were housed two per cage with free access to food and water in the Division of Lab Animal Resources at the College of Pharmacy at the University of Kentucky. Experimental protocols involving the animals were approved by the Institutional Animal Care and Use Committee at the University of Kentucky.
(§2) [^3 H]DA Release Assay. Rat striatal slices (500 μm thickness, 6-8 mg wet weight) were obtained as previously described (Dwoskin and Zahniser, 1986). Slices were incubated for 30 min in Krebs' buffer ([…]; 118 NaCl, 4.7 KCl, 1.2 MgCl2, 1.0 NaH2 PO4, 1.3 CaCl2, […], 11.1 glucose, 25 NaHCO3, 0.11 L-ascorbic acid nd 0.004 disodium EDTA; pH 7.4 and saturated with 95% O2 /5% CO2) in a metabolic shaker at 34°. Slices were rinsed with 15 ml of fresh buffer and incubated for an additional 30 min in fresh buffer containing 0.1 μM [^3 H]dopamine (6 slices/3 ml). Subsequently, slices were rinsed with 15 ml of fresh buffer and transferred to a glass superfusion chamber. Slices were superfused (1.0 ml/min) for 60 min with Krebs' buffer containing nomifensine (10 μm) and pargyline (10 μm) and maintained at 34° C., pH 7.4 with continual aeration (95% O2 /5% CO2). Two 5-min samples (5 ml) were collected to determine basal outflow of [^3 H]DA. N-Substituted nicotine analogues were added to the superfusion buffer after the collection of the second sample and remained in the buffer until 12 consecutive 5-min samples were collected. […] At the end of the experiment each slice was solubilized and the [^3 H] content of the tissue determined.
(§3) Radioactivity in the superfusate and tissue samples was determined by liquid scintillation spectroscopy. Fractional release for each superfusate sample was calculated by dividing the total tritium collected in each sample by the total tritium present in the tissue at the time of sample collection. Basal [^3 H]out flow was calculated from the average of the tritium collected in the two 5-min samples just before addition of the N-substituted nicotine analogue. The sums of the increase in collected tritium resulting from either exposure to the test compound or exposure to nicotine in the absence and presence of the test compound equaled total [^3 H]overflow. [^3 H]overflow was calculated by subtracting the [^3 H]outflow during an equivalent period of prestimulation from the values in samples collected during and after drug exposure. Inasmuch as the radiolabelled compounds were not separated and identified, the tritium collected in superfusate is referred to as either [^3 H]outflow or [^3 H]overflow, rather than as [^3 H]DA. [^3 H]Overflow primarily represents [^3 H]DA in the presence of nomifensine and pargyline in the superfusion buffer (Zumstein et al. 1981).

[2] = system: S(-)nicotine (10 μM)-evoked [^3 H]DA release from rat striatal slices; assay type: cell-based
Description: as §1, §2, §3
In these experiments, the striatal slices were superfused for 60 min with various concentrations of the analogues prior to nicotine (10 μM) exposure. Antagonist activity was evaluated by comparing the nicotine-evoked [^3 H]overflow in the absence and presence of the analogues. […] The relative order of potency of the classical and pyridine-N substituted nicotine analogues for inhibition of nicotine-evoked [^3 H]DA release from rat striatal slices is illustrated in FIG. 2 by a comparison of their IC50 values.
FIG. 2. IC50 values for N-substituted analogues of nicotine, nornicotine, and cotinine to inhibit nicotine-evoked [^3 H]DA release from rat striatal slices. Inhibition produced by the classical nicotinic inhibitors, mecamylamine (MEC) and DHBE was also determined. Slices were superfused with inhibitor for 60 min […] co-superfusion with 10 μM nicotine. Inhibition was determined by comparing [^3 H]DA release in the absence and presence of various concentrations of inhibitor. IC50 values were determined using the Logit-log plot (pseudo-Hill plot). […] IC50 for each animal was determined as the intercept of the linear regression.

[3] = physchem; conditions: for pKa: d2o, 1H-NMR
Description: (§4) pKa Determination. A solution [1 g in 12 mls of deuterium oxide 100% atom D] of the compound under investigation was gradually acidified by drop-wise addition of a solution of DC1 to D2 O (20% wt/wt, 99.5% atom D). The pD values were measured on a Corning pH meter. For each pD value, a sample (0.8 mls) was analyzed by ^1 H-NMR on a Varian Unity 300 MHz spectrometer using sodium 3(trimethylsilyl)-2,2,3,3-d4 -propionate (TSP) as internal reference. Protonation of the pyrrolidine- and pyridine-N atoms was followed by observing the variation in chemical shift of the N-1'-methyl and 2'-proton signals from pO 8.8 to pD 3.0. A titration curve of pD vs chemical shift was constructed to determine the pKa values of pyrrolidino-N atom and/or the pyridine-N atom.
as §4, with “Computational Chemistry.” for “pKa Determination.”, “3-(trimethylsilyl)-2,2,3,3-d4” for “3(trimethylsilyl)-2,2,3,3-d4”, “N-1'methyl” for “N-1'-methyl”, “pD” for “pO”

[4] = system: rat striatal synaptosomes; conditions: cited from earlier work
[5] = system: rabbit caudate nucleus; conditions: cited from earlier work
[6] = system: rat hypothalamic and corticotropin-releasing hormone secretion; conditions: cited from earlier work
[7] = system: dopamine 2 agonist binding in rat basil ganglia; conditions: in vivo; cited from earlier work
[8] = system: nicotine receptor; conditions: cited from earlier work
[9] = Table 3, 1 μM, mean ± S.E.M., rat striatal slices
[10] = Table 3, 10 μM, mean ± S.E.M., rat striatal slices
[11] = Table 3, 100 μM, mean ± S.E.M., rat striatal slices
[12] = pKa of pyrrolidino-N (N'-amino) functionality

Structure (SMILES): C=CC[n+]1cccc([C@@H]2CCCN2C)c1 [NANI, S-N-allylnicotiniumiodide]
- total [3H]overflow (effect on [3H]DA release) [1, 9]: 0.02 ± 0.02
- total [3H]overflow (effect on [3H]DA release) [1, 10]: 0.07 ± 0.04
- total [3H]overflow (effect on [3H]DA release) [1, 11]: 0.08 ± 0.03
- nicotinic antagonist activity / inhibition of nicotine-evoked [3H]DA release (in words) [2]: Significant antagonist activity; also recorded: significantly lower potency and efficacy; also recorded: possessing antagonist activity; also recorded: preferred nicotinic receptor antagonist activity
- relative order of potency for inhibition of nicotine-evoked [3H]DA release (comparison of IC50 values) [2]: NBNB=NPNI=NnNBI=NANI>NHENI
- pKa [3, 12]: 6.4
- predominant ionization form ([3]; physiological pH): exist predominantly in their unprotonated form at physiological pH

Structure (SMILES): CCCCCCCC[n+]1cccc([C@@H]2CCCN2C)c1 [NONI, S-N-octylnicotinium iodide]
- agonist activity relative to nicotine [1]: three-times the agonist activity of nicotine
- total [3H]overflow (effect on [3H]DA release) [1, 9]: 0.03 ± 0.02
- total [3H]overflow (effect on [3H]DA release) [1, 10]: 0.14 ± 0.14
- total [3H]overflow (effect on [3H]DA release) [1, 11]: 16.4 ± 2.00
- effect on [3H]DA release / intrinsic agonist activity (in words) ([1]; rat striatal slices, 1-100 μM): possessed intrinsic agonist activity at this high concentration; also recorded: did not possess agonist activity at concentrations which completely blocked nicotine-evoked [^3 H]DA release
- effect on [3H]DA release / intrinsic agonist activity (in words) ([1]; rat striatal slices, 1-100 μM, listed as HONI): evoked [^3 H]DA release and thus, possess intrinsic agonist activity at this concentration
- nicotinic antagonist activity / inhibition of nicotine-evoked [3H]DA release (in words) [2]: Significant antagonist activity; also recorded: completely inhibited nicotine-evoked [^3 H]DA release; also recorded: Greatest antagonist potency; also recorded: preferred nicotinic receptor antagonist activity; also recorded: most efficacious and potent compound in the series; also recorded: completely blocked the effect of nicotine to evoke [^3 H]DA release
- potency relative to mecamylamine and dihydro-β-erythroidine [2]: approximately half that of the classical nicotinic antagonists
- relative order of potency for inhibition of nicotine-evoked [3H]DA release (comparison of IC50 values) [2]: NONI>>DHBE=MEC
- concentration for intrinsic agonist activity relative to that required to completely inhibit nicotine-evoked [3H]DA release ([2]; fold higher): 10 fold

Structure (SMILES): CCC[n+]1cccc([C@@H]2CCCN2C)c1 [NPNI, S-N-propyl nicotinium iodide]
- total [3H]overflow (effect on [3H]DA release) [1, 9]: 0.06 ± 0.01
- total [3H]overflow (effect on [3H]DA release) [1, 10]: 0.03 ± 0.03
- total [3H]overflow (effect on [3H]DA release) [1, 11]: 0.03 ± 0.03
- nicotinic antagonist activity / inhibition of nicotine-evoked [3H]DA release (in words) [2]: Significant antagonist activity; also recorded: significantly lower potency and efficacy; also recorded: preferred nicotinic receptor antagonist activity
- relative order of potency for inhibition of nicotine-evoked [3H]DA release (comparison of IC50 values) [2]: NBNB=NPNI=NnNBI=NANI>NHENI

Structure (SMILES): CCCC[n+]1cccc([C@@H]2CCCN2C)c1 [NnBNI, S-N-nbutyl nicotinium iodine]
- total [3H]overflow (effect on [3H]DA release) [1, 9]: 0.00 ± 0.00
- total [3H]overflow (effect on [3H]DA release) [1, 10]: 0.01 ± 0.01
- total [3H]overflow (effect on [3H]DA release) [1, 11]: 0.01 ± 0.01
- nicotinic antagonist activity / inhibition of nicotine-evoked [3H]DA release (in words) [2]: Significant antagonist activity; also recorded: significantly lower potency and efficacy; also recorded: preferred nicotinic receptor antagonist activity
- relative order of potency for inhibition of nicotine-evoked [3H]DA release (comparison of IC50 values) [2]: NBNB=NPNI=NnNBI=NANI>NHENI

Structure (SMILES): C[N+]1(C)CCC[C@H]1c1cccnc1 [PIPNMN, S-N'-methyl nicotinium iodide]
- total [3H]overflow (effect on [3H]DA release) [1, 9]: 0.03 ± 0.03
- total [3H]overflow (effect on [3H]DA release) [1, 10]: 0.01 ± 0.01
- total [3H]overflow (effect on [3H]DA release) [1, 11]: 0.05 ± 0.02
- nicotinic antagonist activity / inhibition of nicotine-evoked [3H]DA release (in words) [2]: did not exhibit significant nicotinic antagonist activity over the concentration range tested
- relative order of potency for inhibition of nicotine-evoked [3H]DA release (comparison of IC50 values) [2]: NMNI=S-N-methylcotininium iodide (NMCI)=S-N'-methyl nicotinium iodide (PIPNMN)
- total [3H]overflow during cosuperfusion with 10 μM nicotine [2]: 3.16 ± 1.46 and 2.98 ± 1.48 and 1.88 ± 0.77

Structure (SMILES): O=c1cccc2n1C[C@@H]1CNC[C@H]2C1 [S(-)cytisine, reference compound]
- effect on [3H]DA release / intrinsic agonist activity (in words) [1]: only marginally released dopamine from the striatal slice
- total [3H]overflow (effect on [3H]DA release) [1]: 0.67 ± 0.26 and 0.85 ± 0.38 and 1.13 ± 0.46
- Emax ([1]; Rattus norvegicus, read-out: evoked [3H]DA release relative to nicotine): ~20%
- effect on [3H]dopamine release from rat striatal synaptosomes [4]: lesser effect of cytisine compared to nicotine in evoking dopamine release from rat striatal synaptosomes

Structure (SMILES): CN1CCC[C@H]1c1cccnc1 [S(-)nicotine, reference compound]
- effect on [3H]DA release / intrinsic agonist activity (in words) [1]: concentration-dependent increase in [^3 H]DA release and was the most potent and efficacious compound; also recorded: concentration-dependent increase in [^3 H]DA release from rat striatal slices
- total [3H]overflow (effect on [3H]DA release) [1]: 2.80 ± 0.28 and 3.24 ± 0.37 and 5.56 ± 0.50
- EC50 ([1]; Rattus norvegicus, read-out: EC50 for nicotine-evoked [3H]DA release): 2000 nM
- nicotine (10 μM)-evoked total [3H]overflow, grand mean [2]: 2.52 ± 0.12
- nicotine (10 μM)-evoked total [3H]overflow, range [2]: 1.03-4.65
- pKa ([3]; pKa of pyridine-N functionality): 3.75
- pKa [3, 12]: 8.4
- effect on basal outflow of GABA [5]: accelerated the basil outflow of gamma-aminobutyric acid (GABA)
- effect on IR-rCRH secretion (in words) [6]: stimulated IR-rCRH secretion in a dose-dependent fashion
- effect on [3H]dopamine release from rat striatal synaptosomes [4]: stimulates the release of [3H]dopamine from rat striatal synaptosomes
- effect of chronic treatment on dopamine 2 agonist binding [7]: decreases dopamine 2 agonist binding in rat basil ganglia

Structure (SMILES): CN1[C@@H](CC(=O)c2ccccc2)CCC[C@H]1C[C@H](O)c1ccccc1 [alpha-lobeline]
- agonist/antagonist character [8]: mixed agonist-antagonist

Structure (SMILES): CN1[C@@H]2CC[C@H]1C[C@@H](OC(=O)C(CO)c1ccccc1)C2 (stereo partly shown) [atropine]
- effect on IR-rCRH secretion (in words) [6]: This effect was antagonized by the simultaneous presence of atropine and hexamethonium

Structure (SMILES): C[N+](C)(C)CCOC(N)=O [carbachol]
- effect on IR-rCRH secretion (in words) ([6]; in vitro, p less than 0.05 for antagonists of acetylcholine): stimulated IR-rCRH secretion in a dose-dependent fashion

Structure (SMILES): C[N+](C)(C)CCCCCC[N+](C)(C)C [hexamethonium]
- effect on IR-rCRH secretion (in words) [6]: This effect was antagonized by the simultaneous presence of atropine and hexamethonium
